From patent publication US11179412B2, “Methods of treating conditions involving elevated inflammatory response” (University of Pittsburgh—Of the Commonwealth System of …, priority 2017, dated 2021)
Structures can show the parent of a compound that is named as a salt.

Test system: STING activation (IFNβ release) in iBMDMs
Assay: IFNβ release ELISA after STING ligand (or LPS) stimulation, iBMDMs
Assay type: cell-based, mouse
Method in brief: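 IFNβ released into the medium was quantified by ELISA (mouse or human kit) after iBMDM stimulation with the canonical STING agonist 3′3′-cGAMP or with LPS.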

[1] = iBMDMs, 3′3′-cGAMP 10 μg/ml, 16 hours, compound 10 μM

## COc1nc(C)cnc1NS(=O)(=O)c1cccnc1-c1ccc(-c2nnco2)cc1 [Zibotentan (ZD4054), Zibotentan]
[1]
  fold increase in IFN-β release: 1.17 fold

## O=C(NC[C@H]1CN(c2ccc(N3CCOCC3=O)cc2)C(=O)O1)c1ccc(Cl)s1 [Rivaroxaban]
[1]
  fold increase in IFN-β release: 0.54 fold

## COc1cc(N2CCN(C)CC2)ccc1Nc1nccc(-c2cn(C)c3cnccc23)n1 [AZ191]
[1]
  fold increase in IFN-β release: 2.01 fold

## CC(/C=C/C(=O)NO)=C\[C@@H](C)C(=O)c1ccc(N(C)C)cc1 [Trichostatin A (TSA), Trichostatin A]
[1]
  fold increase in IFN-β release: 0.39 fold

## S3I-201
[1]
  fold increase in IFN-β release: 0.88 fold

## COc1cc2nc(N3CCN(C(=O)C4COc5ccccc5O4)CC3)nc(N)c2cc1OC (stereo not shown) [Doxazosin Mesylate]
[1]
  fold increase in IFN-β release: 0.69 fold

## CCCCCCCCc1ccc(CCC(N)(CO)CO)cc1 [Fingolimod (FTY720) HCl, Fingolimod]
16 h, 10 µM
  fold increase in IFN-β release: 0.77 fold

## COc1ccc2c(c1)c(CC(=O)N1CCOCC1)c(C)n2C(=O)c1ccc(Cl)cc1 [BML-190]
[1]
  fold increase in IFN-β release: 0.35 fold

## O=C1NC(=O)/C(=C/c2ccc(-c3ccc(F)cc3O)o2)S1 [AS-252424]
[1]
  3′3′-cGAMP-induced IFNβ release: promoted
  fold increase in IFN-β release: 6.84 fold

## O=C(O)c1cc(I)ccc1NC(=O)[C@H](Cc1ccccc1)NCc1ccccc1 [CW069]
[1]
  fold increase in IFN-β release: 4.03 fold

## Cc1noc(-c2ccc(CSCCC(=O)O)cc2)c1NC(=O)OC(C)c1ccccc1Cl (stereo not shown) [Ki16425]
[1]
  fold increase in IFN-β release: 1.41 fold

## C[C@@H](Oc1cc(-n2cnc3ccc(CN4CCN(C)CC4)cc32)sc1C(N)=O)c1ccccc1C(F)(F)F [GSK461364]
[1]
  fold increase in IFN-β release: 0.21 fold

## O=c1ncccn1[C@@H]1O[C@H](CO)[C@@H](O)[C@H]1O [Zebularine]
[1]
  fold increase in IFN-β release: 1.50 fold

## Cc1ccc2c(=O)c3cccc(CC(=O)O)c3oc2c1C [DMXAA (Vadimezan), 5,6-dimethylxanthenone-4-acetic acid]
[1]
  fold increase in IFN-β release: 3.23 fold

## CO[C@H]1C[C@@H]2CC[C@@H](C)[C@@](O)(O2)C(=O)C(=O)N2CCCC[C@H]2C(=O)O[C@H]([C@H](C)C[C@@H]2CC[C@@H](OC(=O)C(C)(CO)CO)[C@H](OC)C2)CC(=O)[C@H](C)/C=C(\C)[C@@H](O)[C@@H](OC)C(=O)[C@H](C)C[C@H](C)/C=C/C=C/C=C/1C [Temsirolimus (CCI-779, NSC 683864), Temsirolimus]
[1]
  fold increase in IFN-β release: 0.73 fold

## COc1cc(CCc2cc(NC(=O)c3ccc(N4CC(C)NC(C)C4)cc3)n[nH]2)cc(OC)c1 (stereo not shown) [AZD4547]
[1]
  fold increase in IFN-β release: 0.35 fold

## CCOC(=O)C1=C(N)Oc2ccc(Br)cc2C1C(C#N)C(=O)OCC (stereo not shown) [HA14-1]
[1]
  fold increase in IFN-β release: 0.45 fold

## Cc1ccccc1C(=O)Nc1ccc(C(=O)N2CCCC(O)c3cc(Cl)ccc32)c(C)c1 (stereo not shown) [Tolvaptan]
[1]
  fold increase in IFN-β release: 1.20 fold

## C#CCC(Cc1cnc2nc(N)nc(N)c2n1)c1ccc(C(=O)N[C@@H](CCC(=O)O)C(=O)O)cc1 (stereo partly shown) [Pralatrexate]
[1]
  fold increase in IFN-β release: 4.31 fold

## O=C(Nc1ccccc1)c1cc([N+](=O)[O-])ccc1Cl [GW9662]
[1]
  fold increase in IFN-β release: 2.50 fold

## CC[C@@H]1C(=O)N(C)c2cnc(Nc3ccc(C(=O)NC4CCN(C)CC4)cc3OC)nc2N1C1CCCC1 [BI 2536]
[1]
  fold increase in IFN-β release: 0.45 fold

## O=S(=O)(c1ccccc1)c1cnc2c(N3CCNCC3)cccc2c1 [SB742457]
[1]
  fold increase in IFN-β release: 0.65 fold

## CN[C@@H](C)C(=O)N[C@H](C(=O)N1CCC[C@H]1C(=O)Nc1snnc1-c1ccccc1)C1CCCCC1 [GDC-0152]
[1]
  fold increase in IFN-β release: 1.79 fold

## CC(=O)c1c(C)c2cnc(Nc3ccc(N4CCNCC4)cn3)nc2n(C2CCCC2)c1=O [Palbociclib (PD-0332991) HCl, Palbociclib]
[1]
  fold increase in IFN-β release: 0.94 fold

## S=C=Nc1cccc(NC(=S)NCCCCNC(=S)Nc2cccc(N=C=S)c2)c1 [MRS 2578]
[1]
  fold increase in IFN-β release: 1.31 fold

## CN(Cc1cnc2nc(N)nc(N)c2n1)c1ccc(C(=O)N[C@@H](CCC(=O)O)C(=O)O)cc1 [Methotrexate]
[1]
  fold increase in IFN-β release: 0.68 fold

## C[C@H](NC(=O)Cc1cc(F)cc(F)c1)C(=O)N[C@@H]1C(=O)N(C)c2ccccc2-c2ccccc21 [YO-01027]
[1]
  fold increase in IFN-β release: 1.74 fold

## O=C(/C=C/c1cccc(S(=O)(=O)Nc2ccccc2)c1)NO [Belinostat (PXD101), Belinostat]
[1]
  fold increase in IFN-β release: 0.70 fold

## CCOc1ccccc1-n1c(C(C)N2CCN(C(=O)COc3ccc(Cl)cc3)CC2)nc2ccccc2c1=O (stereo not shown) [Erastin]
[1]
  fold increase in IFN-β release: 4.52 fold

## C[C@@H](O[C@H]1OCCN(Cc2n[nH]c(=O)[nH]2)[C@H]1c1ccc(F)cc1)c1cc(C(F)(F)F)cc(C(F)(F)F)c1 [Aprepitant]
[1]
  fold increase in IFN-β release: 0.76 fold

## O=C(O)C(Cc1ccccc1[N+](=O)[O-])=NNc1nc(-c2ccc(Cl)c(Cl)c2)cs1 (mixture of isomers) [4EGI-1]
[1]
  fold increase in IFN-β release: 4.14 fold

## Cn1c(N2CCCCS2(=O)=O)nc(C(=O)NCc2ccc(F)cc2)c(O)c1=O [BMS-707035]
[1]
  fold increase in IFN-β release: 1.59 fold

## COc1ccccc1OCCNCC(O)COc1cccc2[nH]c3ccccc3c12 (stereo not shown) [Carvedilol]
[1]
  fold increase in IFN-β release: 1.87 fold

## CC(C)CCN1c2nc(Nc3cc(F)c(O)c(F)c3)ncc2N(C)C(=O)C1C (stereo not shown) [BI-D1870]
[1]
  fold increase in IFN-β release: 0.79 fold

## Nc1cccc(-c2cc3c(Oc4cccc(O)c4)ncnc3[nH]2)c1 [TWS119]
[1]
  fold increase in IFN-β release: 0.35 fold

## N#Cc1ccc(C(c2ccc(C#N)cc2)n2cncn2)cc1 [Letrozole]
[1]
  fold increase in IFN-β release: 0.61 fold

## O=C1C(=O)N(Cc2ccc(Cl)c(Cl)c2)c2ccccc21 [Apoptosis Activator 2]
[1]
  fold increase in IFN-β release: 0.17 fold

## CC(C)(C)Cn1c(N)nc2ccc(-c3[nH]c(C(C)(C)C)nc3-c3ccc(F)cc3)nc21 [LY2228820]
[1]
  fold increase in IFN-β release: 5.15 fold

## N[C@@H]1C[C@H]1c1ccccc1 (racemic) [Tranylcypromine (2-PCPA) HCl, Tranylcypromine]
[1]
  fold increase in IFN-β release: 1.17 fold

## COc1ccc2c(c1)c(C1=C(c3c[nH]c4ccccc34)C(=O)NC1=O)cn2CCCN(C)C [Go 6983]
[1]
  fold increase in IFN-β release: 0.26 fold

## CCCN[C@H]1CCc2nc(N)sc2C1 [Pramipexole]
[1]
  fold increase in IFN-β release: 2.07 fold

## VU 0357121
[1]
  fold increase in IFN-β release: 1.49 fold

## Cc1cc(C)nc(NS(=O)(=O)c2ccc(NC(=S)NC(=O)COc3ccc(Br)cc3Cl)cc2)n1 [ZCL278]
[1]
  fold increase in IFN-β release: 2.52 fold

## C[C@]1(O)C[C@@H](c2nc(-c3ccc4ccc(-c5ccccc5)nc4c3)c3c(N)nccn32)C1 [OSI-906 (Linsitinib), Linsitinib]
[1]
  fold increase in IFN-β release: 0.66 fold

## Cn1cnc2c(F)c(Nc3ccc(Br)cc3Cl)c(C(=O)NOCCO)cc21 [Selumetinib (AZD6244), Selumetinib]
[1]
  fold increase in IFN-β release: 0.50 fold

## CC(C)c1noc(N2CCC(COc3ccc(-c4ccc(S(C)(=O)=O)cc4)nc3)CC2)n1 [GSK1292263]
[1]
  fold increase in IFN-β release: 2.58 fold

## COc1ccnc2[nH]cc(C(=O)C(=O)N3CCN(C(=O)c4ccccc4)C[C@H]3C)c12 [BMS-378806]
[1]
  fold increase in IFN-β release: 1.70 fold

## C=C[C@@]1(C)CC(=O)[C@]2(O)[C@@]3(C)[C@@H](O)CCC(C)(C)[C@@H]3[C@H](O)[C@H](OC(C)=O)[C@@]2(C)O1 [Forskolin]
[1]
  fold increase in IFN-β release: 0.81 fold

## CCc1nc(N)nc(N)c1-c1ccc(Cl)cc1 [Pyrimethamine]
[1]
  fold increase in IFN-β release: 5.22 fold

## CC(=O)O[C@H]1C[C@@H]2CC[C@@H]3[C@H](CC[C@@]4(C)[C@H]3C[C@H]([N+]3(C)CCCCC3)[C@@H]4OC(C)=O)[C@@]2(C)C[C@@H]1[N+]1(C)CCCCC1.[Br-].[Br-] [Pancuronium dibromide]
[1]
  fold increase in IFN-β release: 1.20 fold

## Fc1cc(F)c2c(c1)C1C=CCC1C(c1cccnc1)N2 (stereo not shown) [Golgicide A]
[1]
  fold increase in IFN-β release: 4.19 fold

## O=C(Nc1ccccc1Br)N[C@@H]1CCN(c2ccc(C(F)(F)F)cn2)C1 [SB705498]
[1]
  fold increase in IFN-β release: 0.32 fold

## Cc1cnc(-c2ccccc2C(C)C)nc1NCc1ccc(-n2ccnn2)cc1 [ML323]
[1]
  fold increase in IFN-β release: 0.43 fold

## Cl.Cl.NC1(c2ccc(-c3nc4ccn5c(=O)[nH]nc5c4cc3-c3ccccc3)cc2)CCC1 [MK-2206 2HCl]
[1]
  fold increase in IFN-β release: 1.02 fold

## CCO[C@@H]1OC(=O)C[C@@H]1NC(=O)[C@@H]1CCCN1C(=O)[C@@H](NC(=O)c1ccc(N)c(Cl)c1)C(C)(C)C [VX-765]
[1]
  fold increase in IFN-β release: 1.67 fold

## O=C(NCc1cccc(O)c1)Nc1nc(-c2ccncc2)cs1 [RKI-1447]
[1]
  fold increase in IFN-β release: 2.41 fold

## C/C(=N\NC(=S)N1CCC1)c1ccccn1 [NSC 319726]
[1]
  fold increase in IFN-β release: 2.43 fold

## COc1c(C)c(C(=O)c2ccc(N)c(C(=O)[O-])c2)n2ccccc12.[Na+] [SSR128129E]
[1]
  fold increase in IFN-β release: 0.98 fold

## CC1(C)CCC(CN2CCN(c3ccc(C(=O)NS(=O)(=O)c4ccc(NCC5CCOCC5)c([N+](=O)[O-])c4)c(Oc4cnc5[nH]ccc5c4)c3)CC2)=C(c2ccc(Cl)cc2)C1 [ABT-199 (GDC-0199)]
[1]
  fold increase in IFN-β release: 1.78 fold

## CCc1c(C(=O)C(N)=O)c2c(OCC(=O)O)cccc2n1Cc1ccccc1 [Varespladib (LY315920), Varespladib]
16 h, 10 µM
  fold increase in IFN-β release: 1.18 fold

## COc1ccccc1N1CCN(CC(O)COc2cccc3ccccc23)CC1 (stereo not shown) [Naftopidil]
[1]
  fold increase in IFN-β release: 2.46 fold

## Oc1cc(O)cc(/C=C/c2ccc(O)c(O)c2)c1 [Piceatannol]
[1]
  fold increase in IFN-β release: 0.42 fold

## C[C@H]1COC2=C1C(=O)C(=O)c1c2ccc2c1CCCC2(C)C [Cryptotanshinone]
[1]
  fold increase in IFN-β release: 0.17 fold

## Cc1cc(C(N)=O)ccc1-n1c(CCC(=O)O)ccc1-c1ccc(-n2ccnc2)cc1 [N6022]
[1]
  fold increase in IFN-β release: 0.75 fold

## C[C@]12C=CC(=O)N[C@@H]1CC[C@@H]1[C@@H]2CC[C@]2(C)[C@@H](C(=O)Nc3cc(C(F)(F)F)ccc3C(F)(F)F)CC[C@@H]12 [Dutasteride]
[1]
  fold increase in IFN-β release: 0.51 fold

## CN1CCN(c2ccc(OC(F)(F)F)c(Nc3ncc4c(n3)-c3c(c(C(N)=O)nn3CCO)CC4)c2)CC1 [NMS-P937 (NMS1286937)]
[1]
  fold increase in IFN-β release: 0.73 fold
